Results as given in article PMC11984388, “A brain-accessible peptide modulates stroke inflammatory response and neurotoxicity by targeting BDNF-receptor TrkB-T1 specific interactome” (Theranostics, 2025).
Residues, ends and D or L forms follow the SMILES beside them. *: point of attachment. Biotin = O=C1N[C@H]2[C@H](CS[C@H]2CCCCC(=O)*)N1

Columns and labels:
RhoGDI = test: Western blot of total RhoGDI levels; assay type: cell-based, rat; conditions: peptide 25 µM 30 min, mean, n = 6-7 (Fig S3)
Method: Ce lls were lyse d in RI P A buffer (50 mM Tris-HCl pH 8.0, 150 mM NaC l, 1% sodium deoxycholate , 1% NP-40, 0.1% SDS, 1 mM DT T), supple me nted with protease and phospha tase inhibitors as above, for 30 min at 4 °C. Then, cell lysa te s were sonic ated using a Bioruptor apparatus and centrifuga ted at 4 °C for 20 min at 10,000 rpm. The protein conce ntration in lysa te s was es tablished with BC A Prote in As say Kit (Thermo Fisher) follow ed by 5 min denaturalization in SDS-sa mple buffer at 95º. Equal amounts of total lysa te s were resolved in Tris-Glycine SDS-PAGE and transferre d to a nitroc ellulos e membrane (GE Healthca re ) in 25 mM Tris HCl pH 8.3, 250 mM glycine and 10% methanol, using an electr ic curre nt of 400 mA for 70 min. After transfer, membranes were sta ine d with a Ponceau S solution to chec k for its effic acy. Then, membranes were blocked for 30 min with a 5% non-fat […]
dry milk solution in Tris Buffere d Saline-Tween (TBS-T, 20 mM Tris HCl pH 7.5, 137 mM NaC l, 0.05% Tween-20) and incubated overnight at 4°C with prima ry antibodies . Next, membranes were was hed with TBS-T and incubated with the appropria te anti-rabbit or anti-mouse peroxidase-conjugated se condary antibodies (Bethyl) for 1 h. To conclude, immunore activity was detecte d using Clar ity Wes ter n ECL Blotting Substrate (BioRad) and band intensity was quantified by dens itome tric analys is (Photos hop, Adobe). Levels of the protein of interest were normalized using those of neuron- spe cific enolas e (NSE) present in the sa m e sa mple and express ed relative to values obtained in their respec tive controls, arbitrarily given a 100% value. NSE was use d as a neuronal loading control sinc e it is not af fe cted by NM DA treatment. Exceptionally, levels of TrkB -T1 were normalized to those of ß- actin in the comparison of prima ry mixed cultures and those of as trocytes . Multiple independent experiments were car r ied out and quantitated as detailed in the figure legends .
Cell transfection and gene reporter ass ays
Plasmids contained minimal CREB or MEF2 response elements upstream firefly luciferase reporter gene (respectively, pCRE or pMEF2; see details in Supplementary Table 1). Primary cultures, without the AraC treatment, were transfected at 11 DIVs with 0.4 µg of plasmids using Lipofectamine 2000. […] Protein extracts were obtained using Passive Lysis Buffer (Promega, Cat# E1941) and luciferase activity was detected by a luminometer (GloMax 96 microplate luminometer, Promega), using REAP buffer (25 mM glycylglycine, 15 mM SO4Mg, 4 mM EGTA, 15 mM potassium phosphate pH 7.8, 3.3 mM ATP, 1 mM DTT, 75 µM luciferin). […]

[1] = system: NeuN+ neurons and GFAP+ astrocytes of mixed cortical cultures; test: Peptide visualization in primary cultures (Fluorescein Avidin D); assay type: cell-based, rat; conditions: peptide 25 µM, 30 min; Fluorescein Avidin D with NeuN and GFAP double staining (Fig 1C)
[2] = then BDNF 100 ng/ml 30 min, relative to basal Bio-TMyc (100%)

Compound | RhoGDI total levels (RhoGDI; [2]) | RhoGDI total levels (RhoGDI; then NMDA 30 min, relative to basal Bio-TMyc (100%)) | Peptide entry into neurons and astrocytes [1] | RhoGDI total levels (RhoGDI; basal, relative to basal conditions with Bio-TMyc (100%))
CC[C@H](C)[C@H](NC(=O)[C@H](CCCCN)NC(=O)[C@H](Cc1c[nH]cn1)NC(=O)[C@H](Cc1ccccc1)NC(=O)[C@H](CC(C)C)NC(=O)[C@@H](NC(=O)[C@H](Cc1ccccc1)NC(=O)[C@H](CCCNC(=N)N)NC(=O)[C@H](CCCNC(=N)N)NC(=O)[C@H](CCCNC(=N)N)NC(=O)[C@H](CCC(N)=O)NC(=O)[C@H](CCCNC(=N)N)NC(=O)[C@H](CCCNC(=N)N)NC(=O)[C@H](CCCCN)NC(=O)[C@H](CCCCN)NC(=O)[C@H](CCCNC(=N)N)NC(=O)CNC(=O)[C@H](Cc1ccc(O)cc1)NC(=O)CCCC[C@@H]1SC[C@@H]2NC(=O)N[C@@H]21)C(C)C)C(=O)N1CCC[C@H]1C(=O)N[C@@H](CC(C)C)C(=O)N[C@@H](CC(=O)O)C(=O)NCC(N)=O [Bio-sTT1Ct] (Biotin-YGRKKRRQRRRFVLFHKIPLDG-NH2) | 93% | 91% | found inside both NeuN+ (arrowheads) and GFAP+ (asterisks) cells | –
CC[C@H](C)[C@H](NC(=O)[C@H](CC(C)C)NC(=O)[C@H](CCCCN)NC(=O)[C@H](CCC(N)=O)NC(=O)[C@H](CCC(=O)O)NC(=O)[C@H](CCC(=O)O)NC(=O)[C@H](C)NC(=O)[C@H](CCCNC(=N)N)NC(=O)[C@H](CCCNC(=N)N)NC(=O)[C@H](CCCNC(=N)N)NC(=O)[C@H](CCC(N)=O)NC(=O)[C@H](CCCNC(=N)N)NC(=O)[C@H](CCCNC(=N)N)NC(=O)[C@H](CCCCN)NC(=O)[C@H](CCCCN)NC(=O)[C@H](CCCNC(=N)N)NC(=O)CNC(=O)[C@H](Cc1ccc(O)cc1)NC(=O)CCCC[C@@H]1SC[C@@H]2NC(=O)N[C@@H]21)C(=O)N[C@@H](CO)C(=O)N[C@@H](CCC(=O)O)C(=O)N[C@@H](CCC(=O)O)C(=O)N[C@@H](CC(=O)O)C(=O)N[C@@H](CC(C)C)C(=O)N[C@@H](CC(C)C)C(=O)N[C@@H](CCCNC(=N)N)C(N)=O [Bio-TMyc, reference compound] (Biotin-YGRKKRRQRRRAEEQKLISEEDLLR-NH2) | 92% | – | found inside both NeuN+ (arrowheads) and GFAP+ (asterisks) cells | 100%
